Results published in patent US9168247B2, “Beta carboline derivatives useful in the treatment of proliferative disorders” (FACULTES UNIVERSITAIRES NOTRE DAME DE LA PAIX, priority 2010, dated 2015).
Like-named read-outs stand apart in the source and are kept apart here.

Legend:
[1] = test system: human cancer cell lines (U373, T98G, Hs683, OE21, OE33); assay: MTT test, mean over the cancer cell lines; format: cell-based
Procedure: (§1) MTT tests were performed in order to rapidly, i.e., within 5 days, measure the effect of the present compounds on the overall cell growth. The test measured the number of metabolically active living cells that were able to transform the yellow product 3-(4,5-dimethylthiazol-2-yl)-2,5-diphenyl tetrazolium bromide (herein referred as MTT) into the blue product formazan dye by mitochondrial reduction. The amount of formazan obtained at the end of the experiment, measured by means of a spectrophotometer, is directly proportional to the number of living cells. Optical density determination thus enabled a quantitative measurement of the effect of the investigated compounds as compared to the control condition (untreated cells) and/or to other reference compounds.
(§2) Five human cancer cell lines set forth in Table 3 were used in the MTT tests. These cancer cell lines cover two histological cancer types including glioma (Hs683, T98G, U373), and oesophageal (OE21, OE33) cancers. The U373 cell line is apoptosis-resistant but autophagy-sensitive.
(§3) To perform the assay, cells were allowed to grow in 96-well micro-wells with a flat bottom with an amount of 100 μl of cell suspension per well with 5,000 to 8,000 cells/well depending on the cell type used. Each cell line was seeded in its appropriate culture medium.
(§4) The detailed experimental procedure was as follows: after a 24-hour period of incubation at 37° C., the culture medium was replaced by 100 μl of fresh medium in which the tested compound was previously dissolved, at the following molar concentrations: 1×10^−8 M, 5×10^−8 M, 1×10^−7 M, 5×10^−7 M, 1×10^−6 M, 5×10^−6 M, 1×10^−5 M, 5×10^−5 M and 1×10^−4 M. Each experiment was performed in sestuplicate (6 times).
(§5) After 72 hours of incubation at 37° C. with (experimental conditions) or without (control condition) the compound to be tested, the medium was replaced by 100 μl MTT dissolved in RPMI (1640 without phenol red) at a concentration of 0.5 or 1 mg/ml. The micro-wells were subsequently incubated during 3 hours and a half at 37° C. and centrifuged at 1300 rpm during 10 minutes. MTT was removed and formazan crystals formed were dissolved in […]. The micro-wells were shaken for 5 minutes and read on a spectrophotometer at wavelengths of 570 nm (maximal formazan absorbance).
(§6) For each experimental condition, the mean optical density was calculated, allowing the determination of the percentage of remaining living cells in comparison to the control.
(§7) The origin of all the cell lines we used, along with their biological characteristics, and the validation procedures of the MTT colorimetric assay as employed here are fully detailed in Van Quaquebeke et al., 2005, J Med Chem 48:849-856; Ingrassia et al., 2009, J Med Chem 52:1100-1114; Mathieu et al., 2009, J Cell Mol Med, Feb. 20, 2009.

[2] = test system: OE33 oesophageal cancer cells; assay: MTT test, overall cell growth, OE33; format: cell-based, human
Procedure: as §1, §2, §3, §4, §5, §6, §7

[3] = test system: T98G glioma cells; assay: MTT test, overall cell growth, T98G; format: cell-based, human; details: 72 hours of incubation
Procedure: as §1, §2, §3, §4, §5, §6, §7

[4] = test system: Hs683 glioma cells; assay: MTT test, overall cell growth, Hs683; format: cell-based, human
Procedure: as §1, §2, §3, §4, §5, §6, §7

[5] = test system: OE21 oesophageal cancer cells; assay: MTT test, overall cell growth, OE21; format: cell-based, human
Procedure: as §1, §2, §3, §4, §5, §6, §7

[6] = test system: U373 cells; assay: Cellular imaging (videomicroscopy) of cultured U373 cells: antiproliferative class and global growth ratio; format: cell-based, human; parameters: key to Anti proliferative class / anti-proliferative class-GGR: class I: actually cytostatic for 3 days (<10% of cell death at the 3rd day); class II: cyctostatic but becomes cytotoxic with <10% cell death on the 2nd day, and >20% of cell death on the 3rd day; class III: cytostatic but rapidly becomes cytotoxic with <10% cell death on the 1st day, >20% of cell death on the 2nd day and >50% of cell death on the 3rd day; class IV: cytotoxic (>50% of cell death on the first day); details: for global growth ratio (GGR): GG treated cells/GG control cells, 72 h after drug addition, drug at its IC50 (MTT-test determined); for Anti proliferative class: cellular imaging of cultured U373 cells over three consecutive days
Text: The effects of the di- and tri-substituted beta-carboline derivatives as described herein can also be determined on cell proliferation, migration and morphology by means of a cellular imaging approach (Debeir et al., Cytometry 60:29-40, 2004; Debeir et al., IEEE Trans Med Imaging 24:697-711, 2005) either in, e.g., the human U373-MG glioma cell line, which is apoptosis-resistant but autophagy-sensitive (Lefranc F et al., Neurosurgery 2008) or in, e.g., the human A549 non-small-cell-lung cancer cell line, which is apoptosis-resistant and autophagy-resistant (Mijatovic T et al., Neoplasia 2006, May; 8(5):402-12).
[…] The experiments are conducted in quadruplicates.
The behaviour of the cells, in terms of morphology, growth and death are thus investigated. The effect on the overall growth is measured by counting the number of cells on the first (0 h) and the last image (72 h) of each film. The global growth ratio (GGR) is then deduced by dividing the number of cells on the last image by the number of cells on the first image. The ratio GGRtreated cells/GGRcontrol cells is further calculated thereby providing a value that describes the effect of compounds of the present invention on the overall cell growth.
The methodology is fully described and validated in Debeir et al., 2008, Exp Cell Res 314:2985-2998 and Mathieu et al., 2009, J Cell Mol Med, Feb. 20, 2009.

[7] = test system: U373 glioma cells; assay: MTT test, overall cell growth, U373; format: cell-based, human; details: 72 hours of incubation
Procedure: as §1, §2, §3, §4, §5, §6, §7

[8] = mean over the cancer cell lines, MTT test, read-out: IC50 Mean ± SEM
[9] = Homo sapiens, mean over the cancer cell lines, MTT test, read-out: IC50 Mean ± SEM
[10] = Homo sapiens, OE33, 72 hours of incubation
[11] = Homo sapiens, Hs 683, 72 hours of incubation
[12] = Homo sapiens, OE21, 72 hours of incubation

IC50 [1, 8] [µM] | IC50 ([2]; 72 hours of incubation) [µM] | IC50 [3] [µM] | IC50 ([4]; 72 hours of incubation) [µM] | IC50 ([5]; 72 hours of incubation) [µM] | IC50 [7] [µM] | IC50 [1, 9] [µM] | IC50 [2, 10] [µM] | IC50 ([3]; Homo sapiens, T98G) [µM] | IC50 [4, 11] [µM] | IC50 [5, 12] [µM] | IC50 ([7]; Homo sapiens, U373 MG) [µM] | IC50 ([1]; Homo sapiens, Table 4, mean over cell lines, read-out: IC50 μM growth inhibition (MTT test)) [µM] | Structure (SMILES) | global growth ratio (GGR) [6] | Anti proliferative class [6]
20 ± 1 | 23 ± 3 | 20 ± 2 | 20 ± 1 | 16 ± 3 | 21.3 ± 0.8 | – | – | – | – | – | – | – | Cc1nccc2c1[nH]c1cc(OCc3ccccn3)ccc12 [JR169] | 0.4 | I (class I: actually cytostatic for 3 days (<10% of cell death at the 3rd day))
0.34 ± 0.06 | – | 0.41 ± 0.01 | 0.26 ± 0.01 | 0.48 ± 0.04 | 0.22 ± 0.03 | – | – | – | – | – | – | – | Cc1c2c(cc[n+]1CCC(C)C)c1ccc(OCCC(C)C)cc1n2CCC(C)C [PL12] | – | –
– | – | – | – | – | – | 2.3 ± 0.1 | – | 2.4 ± 0.4 | 2.31 ± 0.09 | 2.4 ± 0.3 | 2 ± 0.3 | – | Cc1c2c(cc[n+]1CCc1ccccc1)c1ccc(OCc3ccccc3)cc1n2Cc1ccccc1 [PL4, 1-methyl-2-phenethyl-7-benzyloxy-9-benzyl-β-carbolin-2-ium bromide] | – | –
5 ± 1 | 6.3 ± 0.1 | 3.6 ± 0.2 | 8.1 ± 0.2 | 5 ± 0.4 | 2.5 ± 0.2 | – | – | – | – | – | – | – | Cc1nccc2c1[nH]c1cc(OCc3ccncc3)ccc12 [JR222] | 0.4 | II
– | – | – | – | – | – | 0.6 ± 0.2 | – | 1.2 ± 0.2 | 0.37 ± 0.03 | 0.5 ± 0.09 | 0.39 ± 0.01 | – | Cc1c2c(cc[n+]1CCC(C)C)c1ccc(OCc3ccccc3)cc1n2Cc1ccccc1 [PL2, 1-methyl-2-(3-methylbutyl)-7-benzyloxy-9-benzyl-β-carbolin-2-ium bromide] | – | –
– | – | – | – | – | – | 5 ± 2 | – | 11 ± 1 | 0.6 ± 0.1 | 3.4 ± 0.8 | 2.5 ± 0.3 | – | CCC[n+]1ccc2c3ccc(OCc4ccccc4)cc3n(Cc3ccccc3)c2c1C [CV56, 1-methyl-2-propyl-7-benzyloxy-9-benzyl-β-carbolin-2-ium bromide] | – | –
– | – | – | – | – | – | 1.5 ± 0.6 | – | 3.1 ± 0.5 | 0.6 ± 0.1 | 1.9 ± 0.3 | 0.66 ± 0.09 | – | CCCCCC[n+]1ccc2c3ccc(OCc4ccccc4)cc3n(Cc3ccccc3)c2c1C [CV53, 1-methyl-2-hexyl-7-benzyloxy-9-benzyl-β-carbolin-2-ium bromide] | – | –
3.4 ± 0.1 | – | 3.5 ± 0.1 | 3.1 ± 0.1 | 3.7 ± 0.1 | 3.4 ± 0.1 | – | – | – | – | – | – | – | Cc1c2c(cc[n+]1Cc1ccccc1)c1ccc(OCCC(C)C)cc1n2CCC(C)C [PL13] | – | –
32 ± 11 | – | 61 ± 6 | 31 ± 3 | 25 ± 4 | 9 ± 2 | – | – | – | – | – | – | – | Cc1c2c(cc[n+]1CCO)c1ccc(OCc3ccccc3)cc1n2Cc1ccccc1 [PL1] | – | –
4 ± 1 | – | 2.9 ± 0.4 | 4 ± 0.3 | 7.6 ± 0.3 | 2.5 ± 0.3 | – | – | – | – | – | – | – | Cc1c2c(cc[n+]1CCO)c1ccc(OCCC(C)C)cc1n2CCC(C)C [PL11] | – | –

Further lines, the molecule ahead of its results:

Structure (SMILES) | IC50 [1, 8] [µM] | IC50 ([2]; 72 hours of incubation) [µM] | IC50 [3] [µM] | IC50 ([4]; 72 hours of incubation) [µM] | IC50 ([5]; 72 hours of incubation) [µM] | IC50 [7] [µM] | IC50 [1, 9] [µM] | IC50 [2, 10] [µM] | IC50 ([3]; Homo sapiens, T98G) [µM] | IC50 [4, 11] [µM] | IC50 [5, 12] [µM] | IC50 ([7]; Homo sapiens, U373 MG) [µM] | IC50 ([1]; Homo sapiens, Table 4, mean over cell lines, read-out: IC50 μM growth inhibition (MTT test)) [µM] | global growth ratio (GGR) [6] | Anti proliferative class [6]
Cc1c2c(cc[n+]1Cc1ccc(F)cc1)c1ccc(OCc3ccc(F)cc3)cc1n2Cc1ccc(F)cc1.[Br-] [CV29, 1-methyl-2-(4-fluorobenzyl)-7-(4-fluorobenzyl)oxy-9-(4-fluorobenzyl)-β-carbolin-2-ium bromide] | – | – | – | – | – | – | 7 ± 3 | 3.1 ± 0.3 | 14 ± 2 | 13 ± 1 | 3.7 ± 0.2 | 2.9 ± 0.1 | – | 0.1 | IV (class IV: cytotoxic (>50% of cell death on the first day))
Cc1nccc2c1[nH]c1cc(OCC3CCCCC3)ccc12 [JR167] | 11 ± 3 | 8.1 ± 0.2 | 7.2 ± 0.2 | 22 ± 2 | 8.3 ± 0.2 | 7.48 ± 0.07 | – | – | – | – | – | – | – | 0.1 | IV (class IV: cytotoxic (>50% of cell death on the first day))
Cc1c2c(cc[n+]1Cc1ccc(F)cc1)c1ccc(OCc3ccccc3)cc1n2Cc1ccccc1.[Br-] [CV17, 1-methyl-2-(4-fluorobenzyl)-7-benzyloxy-9-benzyl-β-carbolin-2-ium bromide] | – | – | – | – | – | – | 1.2 ± 0.4 | 2.4 ± 0.3 | 0.56 ± 0.05 | 1.6 ± 0.3 | 0.61 ± 0.04 | 0.59 ± 0.06 | – | 0.4 | I (class I: actually cytostatic for 3 days (<10% of cell death at the 3rd day))
Cc1nccc2c3ccc(O)cc3n(Cc3ccccc3)c12 [CV27, 1-methyl-7-hydroxy-9-benzyl-β-carboline] | – | – | – | – | – | – | 62 ± 11 | 35 ± 2 | 81 ± 11 | 79 ± 4 | 35 ± 2 | 80 ± 2 | – | 0.2 | II
Cc1nccc2c3ccc(OCC4CCCCC4)cc3n(CC3CCCCC3)c12 [CV12, 1-methyl-7-cyclohexylmethyloxy-9-cyclohexylmethyl-β-carboline] | – | – | – | – | – | – | 25 ± 4 | 15 ± 3 | 32 ± 1 | 30 ± 2 | 17 ± 2 | 30.7 ± 0.8 | 25 | 0.2 | II
Cc1c2c(cc[n+]1CC(=O)c1ccccc1)c1ccc(OCc3ccccc3)cc1n2Cc1ccccc1 [CV52] | 21 ± 2 | – | 19 ± 2 | 26 ± 3 | 17 ± 2 | 22 ± 2 | – | – | – | – | – | – | – | – | –
Cc1c2c(cc[n+]1Cc1ccccc1F)c1ccc(OCc3ccc(F)cc3)cc1n2Cc1ccc(F)cc1.[Br-] [CV25] | – | – | – | – | – | – | – | – | – | – | – | – | – | 0.4 | I (class I: actually cytostatic for 3 days (<10% of cell death at the 3rd day))
Cc1c2c(cc[n+]1Cc1ccccc1F)c1ccc(OCc3ccc(F)cc3)cc1n2Cc1ccc(F)cc1.[Br-] [CV25, 1-methyl-2-(2-fluorobenzyl-7-(4-fluorobenzyl)oxy-9-(4-fluorobenzyl)-β-carbolin-2-ium bromide] | 1.1 ± 0.3 | 1.6 ± 0.2 | 0.43 ± 0.02 | 1.2 ± 0.4 | 1.6 ± 0.3 | 0.46 ± 0.08 | – | – | – | – | – | – | – | – | –
COc1ccc2c(c1)[nH]c1c(C)nccc12 [harmine, reference compound] | – | – | – | – | – | – | 28 ± 3 | 18 ± 1 | 24 ± 2 | – | 32 ± 2 | 32 ± 2 | – | – | I (class I: actually cytostatic for 3 days (<10% of cell death at the 3rd day))
